Assay results published in patent US20230338369A1, “COMBINATION OF A PROTEASOME INHIBITOR AND A HDAC INHIBITOR AND ITS USE FOR THE TREATMENT OF GENETIC DISEASES LINKED TO A PROTEIN CONFORMATIONAL DISORDER” (Centre d'Etude des Cellules Souches (CECS), priority 2019, published 2023).
pEC50: −log10 of the molar value. Like-named read-outs stand apart in the source and are kept apart here. Peptide text beside a SMILES is read from it. * marks the point of attachment. Cbz = O=C(OCc1ccccc1)*

Assays:
R77C-α-SGmCh = assay: SG localization cell-based assay: membrane rescue of R77C-α-SGmCh in immortalized LGMD-R3 patient fibroblasts; set-up: species or system human; details: for pEC50: read-out: EC50, presence of R77C-α-SGmCh at the membrane; for effect on R77C-α-SGmCh mutant protein rescue in combination with givinostat: low doses: carfilzomib 10 nM, MG132 100 nM, increasing concentrations of givinostat
Description: Cells were analyzed after 24 hours of treatment.
In order to easily evaluate the membrane localization of the R77C-α-SG mutant in the heterologous condition, a system was generated that allowed the simultaneous identification of the positive cells for the exogenous protein and the quantification of the amount of protein in the cell membrane. A fusion protein was created, consisting of the coding sequence for human R77C-α-SGfused with an mCherry (mCh) fluorescent reporter at the C-terminus. A flexible linker was inserted between the two coding sequences to avoid protein interference in protein maturation and folding. The construct, hereafter termed R77C-α-SGmCh, was placed under the transcriptional control of the cytomegalovirus (CMV) promoter and inserted into a lentivirus backbone. Immortalized fibroblasts from a LGMD-R3 patient were used as cellular model because of their absence of endogenous α-SG.

[1] = target: T1, chymotrypsin-like activity of the proteasome (Homo sapiens, UniProt P28074); assay: Proteasomal activity assay (Proteasome-Glo chymotrypsin-like cell-based assay); details: for chymotrypsin-like activity of the proteasome: increasing concentrations
T1 construct: endogenous in cells; host or cells: immortalized patient fibroblasts overexpressing R77C-α-SGmCh
Description: Fibroblasts were seeded in 384 well plates and treated with tested combinations as indicated for 12 hours. Proteasome-Glo™ or chymotrypsin-like cell-based assay reagents were added according to manufacturer instructions (Promega). Luminescence was read using a CLARIOstar® microplate reader (BMG Labtech).

[2] = system: ubiquitinated proteins, P62, LC3BI/II, acetylated α-tubulin, α-SG; assay: Immunoblotting of fibroblasts overexpressing R77C-α-SGmCh; format: cell-based, human; details: 24 hours; for ubiquitinated proteins (Western blot): 10 μM in combination with 5 nM BTZ
Description: (B) Western Blot analysis of ubiquitinated proteins (top panel), P62 and LC3BI/II (middle panel) and acetylated α-tubulin (bottom panel) expression in fibroblasts overexpressing R77C-α-SGmCh and treated with DMSO 0.1%, BTZ (5 nM or 30 nM), or givinostat (10 μM) in presence or in absence of 5 nM BTZ for 24 hours.
(D) Western Blot analysis of ubiquitinated proteins (middle panel), α-SG (top panel) and acetylated α-tubulin (bottom panel) expression in fibroblasts overexpressing R77C-α-SGmCh and treated with DMSO 0.1%, BTZ (5 nM or 30 nM), or tubacin (10 μM) in presence or in absence of 5 nM BTZ for 24 hours.
Twenty-four hours after seeding, the immortalized fibroblasts expressing R77C-α-SGmCh were incubated with the tested compounds or the carrier. Cells were collected after 24 hours of treatment. Proteins were extracted by cell lysis buffer (NP40 Buffer, Thermo Scientific) and Proteases Inhibitors (Complete PIC, Roche). Proteins were separated using a 3-8% Criterion™ XT tris-acetate protein gel and then transferred to PVDF membrane with a Trans-Blot Turbo Transfert system (Biorad) using the 7 min/25V program. Detection of proteins was performed using standard Odyssey protocol by incubation with the following antibodies: • Ubiquitinated proteins: Merck, 04-263; • acetylated α-tubulin: Sigma, T6793; • P62: Abcam, ab56416; • LC3BI/II: Novus, NB600-1384.

[3] = system: fibroblasts overexpressing R77C-α-SGmCh; assay: Viability test: count of Hoechst stained cells per field; details: increasing concentrations alone or in combination with 5 nM BTZ
Description: For overexpression of mutated α-SG and γ-SG, immortalized fibroblasts were transduced with a lentiviral vector expressing human R77C-α-SGmCh, C283Y-γ-SGmCh or E263K-γ-SGmCh with a multiplicity of infection (MOI) of 20 in the presence of 4 μg/ml of polybrene (Sigma-Aldrich). Cells were seeded on plates coated with 50 μg/ml of collagen I and maintained in a humidified atmosphere of 5% CO2 at 37-C. […] Cells were analyzed after 24 hours of treatment.
After 24 hours of drug treatment, cells were fixed in 4% paraformaldehyde (10 min, room temperature). Immunocytochemistry was performed in a phosphate-buffered saline (PBS) solution supplemented with 1% bovine serum albumin (BSA; Sigma) for blocking (1 hour, room temperature) and with a mouse anti-α-SG (NCL-L-a-SARC, Novocastra, Leica) or anti-γ-SG (NCL-L-g-SARC, Novocastra, Leica) for primary hybridization step (overnight, 4° C.). Cells were stained with a fluorophore-conjugated secondary anti-mouse antibody (Invitrogen; 1 hour, room temperature) and nuclei were visualized with Hoechst 33342 (Invitrogen). SG localization was analyzed with a CellInsight CX7 HCS Platform (Cellomics Inc). […] Pictures were acquired with a 10× objective in high-resolution camera mode and were analyzed using the colocalization bioapplication. The number of cells was monitored by counting Hoechst stained cells per field allowing quantification of the cell viability.

[4] = 10 μM with addition of 5 nM BTZ
[5] = combined treatment with 5 nM BTZ

SMILES | R77C-α-SGmCh membrane rescue (α-SG staining) (R77C-α-SGmCh; 10 μM alone) | R77C-α-SGmCh membrane rescue (α-SG staining) (R77C-α-SGmCh; [4]) | pEC50 (R77C-α-SGmCh; [5]) | pEC50 (R77C-α-SGmCh; treatment alone) | chymotrypsin-like activity of the proteasome [1] | ubiquitinated proteins (Western blot) [2] | effect on R77C-α-SGmCh mutant protein rescue in combination with givinostat (R77C-α-SGmCh) | other results
CCN(CC)Cc1ccc2cc(COC(=O)Nc3ccc(C(=O)NO)cc3)ccc2c1 [givinostat, Givinostat] | low effect | diffuse α-SG staining suggesting a synergy with BTZ | 6.10 | 5.52 | no proteasomal inhibition | synergistic accumulation of ubiquitinated proteins |  | acetylation of α-tubulin (Western blot) ([2]; 10 μM alone or in combination with 5 nM BTZ): induces the acetylation of α-tubulin; LC3B-I to LC3B-II conversion and P62 (Western blot) ([2]; 10 μM combined with 5 nM BTZ): increasing conversion of LC3B-I to LC3B-II with P62 accumulation
O=C(/C=C/c1cccc(S(=O)(=O)Nc2ccccc2)c1)NO [belinostat] | low effect | diffuse α-SG staining suggesting a synergy with BTZ | 6.52 | 5.28 | no proteasomal inhibition |  |  | 
O=C(CCCCCCC(=O)Nc1ccc([C@H]2O[C@@H](CSc3nc(-c4ccccc4)c(-c4ccccc4)o3)C[C@@H](c3ccc(CO)cc3)O2)cc1)NO [tubacin, Tubacin] |  |  |  |  |  | synergistic accumulation of ubiquitinated proteins |  | membrane R77C-α-SGmCh expression (R77C-α-SGmCh; in combination with 5 nM BTZ): synergistic effect; membrane R77C-α-SGmCh expression (R77C-α-SGmCh; increasing concentrations, alone): induced a dose-response curve; acetylation of α-tubulin (Western blot) ([2]; 10 μM combined with 5 nM BTZ): acetylation of a-tubulin; α-SG protein levels (Western blot) ([2]; 10 μM combined with 5 nM BTZ): increased α-SG protein levels; cell toxicity [3]: in the same range than givinostat
CC(C)C[C@H](NC(=O)[C@H](CCc1ccccc1)NC(=O)CN1CCOCC1)C(=O)N[C@@H](Cc1ccccc1)C(=O)N[C@@H](CC(C)C)C(=O)[C@@]1(C)CO1 [carfilzomib] |  |  |  |  |  |  | synergistic effect | 
CC(C)C[C@@H](C=O)NC(=O)[C@H](CC(C)C)NC(=O)[C@H](CC(C)C)NC(=O)OCc1ccccc1 [MG132] (Cbz-Leu-Leu-Leu-aldehyde) |  |  |  |  |  |  | synergistic effect | 
CC(C)C[C@H](NC(=O)[C@H](Cc1ccccc1)NC(=O)c1cnccn1)B(O)O [bortezomib] |  |  |  |  |  |  |  | R77C-α-SG degradation rescue (R77C-α-SGmCh; 5 nM BTZ): rescuing partially; R77C-α-SG localization in the plasma membrane (R77C-α-SGmCh; 30 nM, 24 hours, non-permeabilized condition): rescue of R77C-α-SG localization in the plasma membrane; inhibition of the proteasome activity ([1]; 5 nM BTZ): limited inhibition
